How the values were obtained:
[1] = tested on: IL-4; assay: Assay 6A: Cytokine assay in human PBMC, PHA induced IL-4; format: cell-based; settings: PHA 20 μg/ml, 48 hours, 2-3 independent experiments, read-out: EC50, antigen-induced IL-4
Procedure: The objective of this study was to assess the inhibitory potential of Compound A1 on antigen-induced cytokine release in human PBMC
• Heparinized human whole blood was diluted 1:1 with PBS, over laid on leukocyte separation medium and centrifuged at 400 g for 40 minutes. • Buffy layer was removed and washed with PBS • 0.15*10^6 of PBMCs were plated in 100 μl per well in RPMI media and incubated for 2 h. • 50 μl of 3× of the compound dilution in media was added and incubated for 15 min. • TNFα—induced with 50 μl of LPS in RPMI such that final concentration was 1 μg/ml. Supernatant was collected at 6 hours. • IL-2-induced with 50 μl of PHA in RPMI such that final concentration was 20 μg/ml. Supernatant was collected at 24 hours. • IL-4-induced with 50 μl of PHA in RPMI such that final concentration was 20 μg/ml.
EC50 values were calculated from 2-3 independent experiments.

[2] = Plasma protein binding (equilibrium dialysis), monkey; format: in vitro ADME; settings: pH 7.4, 37° C.
Procedure: (§1) Below is provided the procedure for measuring plasma protein binding (using an equilibrium dialysis method). 745 μL of plasma was transferred into a 2 ml micro centrifuge tube. To that 5 μL of Compound A1 (150 μM) was added. Samples were mixed in the table top vortexer for 2 minutes. 50 μL plasma (n=2) was transferred in a pre-labeled 1.5 mL micro centrifuge tube treated as 0 hour sample.
(§2) The remaining 650 μL plasma sample were incubated for 30 minutes at 37° C. in a water bath. After 30 minute incubation, 50 μL plasma (n=2) was removed in a pre-labelled 1.5 mL micro centrifuge tube treated as 0.5 hour sample. 200 μL of the plasma sample (n=2) was transferred into the sample chamber which was indicated by the red ring. The red insert was placed into the base plate and 350 μL of buffer was transferred into the buffer chamber. Plates were incubated at 37° C. at approximately 100 RPM on an orbital shaker or 20 RPM on an up-and-down shaker for 4 hours. 50 μL of post dialysis-sample from the buffer and the plasma chambers were transferred into a pre-labelled micro centrifuged tube. 50 μL of plasma was added to the buffer samples and an equal volume of buffer (KH2PO4 Buffer pH 7.4) to the collected plasma samples. 150 μL of methanol containing internal standard (Tolbutamide 250 ng/ml) was added to precipitate the protein and release compound. […]

[3] = Plasma protein binding (equilibrium dialysis), dog; format: in vitro ADME; settings: pH 7.4, 37° C.
Procedure: as §1, §2

[4] = target: T1, PI3K alpha (Mus musculus, UniProt P42337); assay: Assay 4A4: PDGF induced Akt phosphorylation in 3T3 cells; format: cell-based; settings: 3T3 fibroblasts
T1 construct: endogenous in cells; host or cells: 3T3 fibroblasts
T1 sequence (P42337 whole entry): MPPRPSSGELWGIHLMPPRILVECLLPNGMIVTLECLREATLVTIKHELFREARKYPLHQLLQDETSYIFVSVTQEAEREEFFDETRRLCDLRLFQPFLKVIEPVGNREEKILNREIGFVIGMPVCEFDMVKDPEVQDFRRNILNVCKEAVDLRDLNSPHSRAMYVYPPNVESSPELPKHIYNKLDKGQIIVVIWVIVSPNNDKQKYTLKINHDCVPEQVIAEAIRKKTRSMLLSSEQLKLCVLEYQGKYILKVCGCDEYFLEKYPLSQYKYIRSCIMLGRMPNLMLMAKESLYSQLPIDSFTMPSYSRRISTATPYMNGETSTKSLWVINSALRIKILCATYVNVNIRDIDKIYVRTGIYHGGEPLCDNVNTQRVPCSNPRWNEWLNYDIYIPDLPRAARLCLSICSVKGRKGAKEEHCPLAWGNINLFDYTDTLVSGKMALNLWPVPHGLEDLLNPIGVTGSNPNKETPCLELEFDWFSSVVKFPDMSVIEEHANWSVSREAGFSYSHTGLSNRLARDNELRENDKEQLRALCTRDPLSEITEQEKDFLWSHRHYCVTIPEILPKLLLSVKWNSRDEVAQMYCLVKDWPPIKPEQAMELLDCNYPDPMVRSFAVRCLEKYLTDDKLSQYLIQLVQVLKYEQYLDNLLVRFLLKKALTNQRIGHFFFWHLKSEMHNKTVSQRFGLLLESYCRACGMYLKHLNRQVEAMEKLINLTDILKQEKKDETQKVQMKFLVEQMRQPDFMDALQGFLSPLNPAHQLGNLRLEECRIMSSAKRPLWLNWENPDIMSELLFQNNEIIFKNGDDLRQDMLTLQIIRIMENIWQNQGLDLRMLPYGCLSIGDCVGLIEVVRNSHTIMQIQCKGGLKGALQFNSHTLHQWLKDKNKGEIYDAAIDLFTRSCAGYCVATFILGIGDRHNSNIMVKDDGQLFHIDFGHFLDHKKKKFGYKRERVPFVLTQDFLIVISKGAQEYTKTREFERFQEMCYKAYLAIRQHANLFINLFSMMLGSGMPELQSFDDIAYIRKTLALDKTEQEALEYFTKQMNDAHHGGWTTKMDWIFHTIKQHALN
T1 sequence (P26450 whole entry partner): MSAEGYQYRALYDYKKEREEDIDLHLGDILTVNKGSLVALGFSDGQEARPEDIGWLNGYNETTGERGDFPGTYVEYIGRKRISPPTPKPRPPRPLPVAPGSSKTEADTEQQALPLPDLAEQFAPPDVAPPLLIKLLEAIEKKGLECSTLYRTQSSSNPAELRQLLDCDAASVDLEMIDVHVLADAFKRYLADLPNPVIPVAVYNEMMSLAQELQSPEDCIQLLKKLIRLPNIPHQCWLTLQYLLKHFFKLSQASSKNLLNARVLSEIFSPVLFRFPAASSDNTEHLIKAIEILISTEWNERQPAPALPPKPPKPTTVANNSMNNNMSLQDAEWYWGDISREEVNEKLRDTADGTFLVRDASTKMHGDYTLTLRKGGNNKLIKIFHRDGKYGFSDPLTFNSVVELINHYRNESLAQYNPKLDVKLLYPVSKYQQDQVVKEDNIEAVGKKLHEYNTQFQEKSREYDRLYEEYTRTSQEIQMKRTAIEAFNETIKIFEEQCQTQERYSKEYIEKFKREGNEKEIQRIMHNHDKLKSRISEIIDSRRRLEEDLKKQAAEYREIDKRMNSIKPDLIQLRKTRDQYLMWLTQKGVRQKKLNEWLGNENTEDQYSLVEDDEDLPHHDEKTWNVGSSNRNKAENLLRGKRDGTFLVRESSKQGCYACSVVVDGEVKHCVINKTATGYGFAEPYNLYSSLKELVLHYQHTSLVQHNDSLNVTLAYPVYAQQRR
Procedure: The objective of this study was to determine the effect of Compound A1 on PI3Kα kinase mediated AktS473 phosphorylation in PDGF induced 3T3 fibroblasts. • 3T3 cells were treated with desired concentrations of the test compound for 15 minutes. 1 ml of 2× PDGF was added such that the final concentration was 20 ng/ml and incubated for 10 minutes. • Media was discarded and washed with 1 ml of ice-cold 1× PBS. • 250 μl of cell lysis buffer was added and incubated on ice for 30 minutes. • Samples were centrifuged and supernatant was collected and stored at −80° C. until analysis. • Samples were analyzed by Western Blotting using pAKT (S473) as the primary and anti-rabbit IgG-HRP as a secondary antibody. • Intensity of the bands was determined using ImageJ 1.42q (NIH, USA) and normalized to Actin (loading control). Data was plotted using GraphPad Prism (Version 5.02).

[5] = target: PI3Kβ (Homo sapiens, UniProt P42338); assay: Assay 1: Fluorescent (HTRF) determination of PI3 kinase enzyme activity, PI3Kβ; format: biochemical
Chain of PI3Kβ (P42338 whole entry, canonical isoform): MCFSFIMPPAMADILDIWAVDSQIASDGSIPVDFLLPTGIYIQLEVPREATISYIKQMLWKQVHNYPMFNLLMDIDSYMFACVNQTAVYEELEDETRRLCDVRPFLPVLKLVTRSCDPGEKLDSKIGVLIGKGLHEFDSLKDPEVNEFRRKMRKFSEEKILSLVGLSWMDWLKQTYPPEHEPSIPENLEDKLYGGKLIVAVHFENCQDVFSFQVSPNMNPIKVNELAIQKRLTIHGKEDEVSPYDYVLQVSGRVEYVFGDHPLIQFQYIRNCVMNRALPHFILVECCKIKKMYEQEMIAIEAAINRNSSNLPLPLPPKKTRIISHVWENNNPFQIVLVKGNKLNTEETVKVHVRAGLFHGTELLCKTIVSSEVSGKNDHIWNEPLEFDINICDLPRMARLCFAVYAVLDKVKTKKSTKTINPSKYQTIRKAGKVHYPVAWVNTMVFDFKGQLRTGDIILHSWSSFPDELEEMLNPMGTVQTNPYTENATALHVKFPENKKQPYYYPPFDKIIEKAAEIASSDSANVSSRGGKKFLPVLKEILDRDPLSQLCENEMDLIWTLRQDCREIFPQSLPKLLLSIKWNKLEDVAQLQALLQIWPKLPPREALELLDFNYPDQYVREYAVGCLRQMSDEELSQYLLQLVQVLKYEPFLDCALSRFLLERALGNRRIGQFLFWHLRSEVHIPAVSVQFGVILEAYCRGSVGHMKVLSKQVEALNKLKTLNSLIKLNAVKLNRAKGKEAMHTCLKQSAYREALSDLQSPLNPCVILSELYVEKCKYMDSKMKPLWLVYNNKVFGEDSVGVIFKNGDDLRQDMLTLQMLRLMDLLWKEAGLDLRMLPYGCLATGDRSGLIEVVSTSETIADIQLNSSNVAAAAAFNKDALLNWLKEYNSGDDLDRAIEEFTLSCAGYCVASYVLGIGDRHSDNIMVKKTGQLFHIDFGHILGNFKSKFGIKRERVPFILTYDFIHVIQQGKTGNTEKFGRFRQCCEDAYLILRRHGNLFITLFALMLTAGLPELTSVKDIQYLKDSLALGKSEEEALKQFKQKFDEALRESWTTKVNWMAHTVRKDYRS
Chain of PI3Kβ (P27986 whole entry partner, canonical isoform): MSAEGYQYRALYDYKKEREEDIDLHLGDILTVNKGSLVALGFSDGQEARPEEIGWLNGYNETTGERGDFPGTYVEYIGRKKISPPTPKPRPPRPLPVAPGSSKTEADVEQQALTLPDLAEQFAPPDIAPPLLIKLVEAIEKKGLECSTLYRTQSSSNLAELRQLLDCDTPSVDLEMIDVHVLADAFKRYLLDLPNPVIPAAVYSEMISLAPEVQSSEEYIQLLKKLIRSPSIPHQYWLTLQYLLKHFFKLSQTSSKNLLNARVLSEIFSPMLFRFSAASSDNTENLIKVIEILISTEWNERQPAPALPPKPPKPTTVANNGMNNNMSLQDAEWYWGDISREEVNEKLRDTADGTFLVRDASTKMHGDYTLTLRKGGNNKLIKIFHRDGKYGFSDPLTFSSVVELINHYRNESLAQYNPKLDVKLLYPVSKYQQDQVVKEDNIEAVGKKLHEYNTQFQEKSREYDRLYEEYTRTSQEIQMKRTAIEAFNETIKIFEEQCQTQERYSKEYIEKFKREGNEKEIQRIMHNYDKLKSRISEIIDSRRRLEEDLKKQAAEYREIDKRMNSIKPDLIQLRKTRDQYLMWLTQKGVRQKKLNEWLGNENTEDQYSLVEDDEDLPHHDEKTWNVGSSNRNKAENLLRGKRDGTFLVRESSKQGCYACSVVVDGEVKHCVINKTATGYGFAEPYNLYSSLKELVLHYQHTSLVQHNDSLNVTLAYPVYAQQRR
Source text: Phosphoinositide 3 kinases (PI3K) belong to a class of lipid kinases that play a critical role in the regulation of several key cellular processes. The PI3K are capable of phosphorylating the 3-hydroxy position of phosphoinositols thereby generating second messengers involved in downstream signaling events. The homogenous time resolved fluorescence (HTRF) assay allows detection of 3,4,5-triphosphate (PIPS) formed as a result of phosphorylation of phosphotidylinositol 4,5-biphosphate (PIP2) by PI3K isoforms such as α, β, γ or δ.
PI3K isoform activity for α, β, γ or δ was determined using a PI3K human HTRF™ Assay Kit (Millipore, Billerica, Mass.) with modifications. All incubations were carried out at room temperature. 0.5 μl of 40× inhibitor (in 100% DMSO) or 100% DMSO were added to each well of a 384-well white plate (Greiner Bio-One, Monroe, N.C.) containing 14.5 μl 1× reaction buffer/PIP2 (10 mM MgCl2, 5 mM DTT, 1.38 μM PIP2) mix with or without enzyme, followed by 5 μl/well of 400 μM ATP and incubated for an additional 30 minutes. The reaction was terminated by adding 5 μl/well stop solution (Millipore, Billerica, Mass.). 5 μl of detection mix (Millipore, Billerica, Mass.) was then added to each well and incubated for 6-18 hours in the dark. HRTF ratio was measured on a microplate reader (BMG Labtech., Germany) at an excitation wavelength of 337 nm and emission wavelengths of 665 and 615 nm with an integration time of 400 msec counting delay of 50 msec.

[6] = tested on: Female Wistar rats; assay: Assay 8: Lipopolysaccharide-induced rat air pouch model of inflammation; format: in vivo; settings: Neutrophil, oral, 1, 3 and 10 mg/kg, pouch fluid 6 h after LPS, read-out: ED50, reduction of neutrophil migration into the rat air pouch
Procedure: Female Wistar rats (175-200 g) were acclimatized for seven days prior to the start of the experiment. Animals were randomly distributed to various groups based on their body weights. Animals were anaesthetised with ether and subcutaneous air pouches were made by injecting 20 ml of sterile air under the skin in the intra-scapular area (day 0) and maintained with a second 10 ml injection of sterile-filtered air on day 4. On day 6, oral treatment was commenced 1 hour prior to induction of inflammation by s.c. injection of LPS solution on day 6. A volume of 5 ml of LPS solution dissolved in sterile saline (100 μg/kg) was injected into each pouch. Samples of pouch fluid were taken at 6 h after administration of LPS by flushing the pouch with 5 ml of sterile saline and withdrawing 4 ml of fluid. The number of leukocytes present in pouch fluid was determined microscopically using a haemocytometer. Differential cell content was determined by microscopic examination of fluid smears stained with Diff-Quik.

EC50 [1]: 0.0035 µM
fraction unbound at 4 h, 1 μM [2]: 0.0529
fraction unbound at 4 h, 1 μM [3]: 0.0415
inhibition of PDGF induced AktS473 phosphorylation at 10 μM ([4]; 10 μM): No inhibition
IC50 ([4]; PDGF 20 ng/ml, read-out: Cellular IC50 PI3K alpha (PDGF induced pAKT in 3T3 fibroblasts)): > 10 µM
inhibition at 1 µM [5]: 46.8%
IC50 ([5]; HTRF enzyme assay): 1360 nM
Fold-Selectivity PI3Kβ ([5]; selectivity profile, enzyme IC50): > 45 fold
Structure (SMILES): COc1ccc(-c2nn([C@@H](C)c3oc4cccc(F)c4c(=O)c3-c3cccc(F)c3)c3ncnc(N)c23)cc1NS(C)(=O)=O [Compound A1, (S)—N-(5-(4-amino-1-(1-(5-fluoro-3-(3-fluorophenyl)-4-oxo-4H-chromen-2-yl)ethyl)-1H-pyrazolo[3,4-d]pyrimidin-3-yl)-2-methoxyphenyl)methanesulfonamide]
ED50 [6]: 2.65 mg/kg
